Results as given in patent US8906904B2, “Alkoxy pyrazoles as soluble guanylate cyclase activators” (Boehringer Ingelheim International GmbH, priority 2012, dated 2014).
Converted amounts (≈) assume the structure as drawn.

What was measured:
[1] = Assessment of solubility (McIlvaine buffers, 24 h shake, UPLC-UV); format: physicochemical; conditions: kinetic from dmso stock
Summary of the method: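 Compounds from 10 mM DMSO stocks were shaken for 24 h at room temperature in McIlvaine buffers at pH 2.2, 4.5 and 6.8 (2.5% v/v DMSO final), then filtered. Filtrates were quantified by UPLC-UV at 254 nm against a 50:50 acetonitrile/water reference assumed fully dissolved, as a single determination.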

[2] = human liver microsome (HLM) metabolic stability assay; format: in vitro ADME; conditions: human liver microsomes; % hepatic blood flow calculated from t1/2
Summary of the method: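 Compounds at 1 uM incubated with human liver microsomes plus NADPH at 37° C., sampled at 0, 5, 15, 30 and 60 min into cold acetonitrile and quantified by LC/MS/MS. t½ from the slope of ln % remaining vs time; CLint, CLh and % Qh derived from it (n=1).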

solubility at 24 h ([1]; pH 2.2, aqueous buffer) [µg/mL]	solubility at 24 h ([1]; pH 4.5, aqueous buffer) [µg/mL]	solubility at 24 h ([1]; pH 6.8, aqueous buffer) [µg/mL]	HLM (% Qh) [2] [% Qh]	Structure (SMILES)
87 (≈ 152 µM)	68 (≈ 119 µM)	66 (≈ 115 µM)	<24	COc1c(C(=O)O)cnn1-c1cccc(-c2cccc(C)c2OCc2cc(F)c3c(c2)CCN(C2CCOCC2)C3)n1 [Compound 201]
120 (≈ 206 µM)	85 (≈ 146 µM)	75 (≈ 129 µM)	89	COc1c(C(=O)O)cnn1-c1cccc(-c2cccc(C)c2OCc2ccc3c(c2)C(C)(C)CN(C2CCCOC2)C3)n1 (stereo not drawn) [Compound 218]
100 (≈ 179 µM)	64 (≈ 115 µM)	80 (≈ 143 µM)	<24	COc1c(C(=O)O)cnn1-c1cccc(-c2cccc(C)c2OCc2cc(F)c3c(c2)CCN([C@H]2CCOC2)C3)n1 [Compound 254]
110 (≈ 187 µM)	86 (≈ 146 µM)	90 (≈ 153 µM)	<24	COc1c(C(=O)O)cnn1-c1cccc(-c2cccc(C)c2OCc2ccc3c(c2Cl)CCN(C2CCOCC2)C3)n1 [Compound 18]
110 (≈ 193 µM)	88 (≈ 155 µM)	90 (≈ 158 µM)	<24	COc1c(C(=O)O)cnn1-c1cccc(-c2cccc(C)c2OCc2ccc3c(c2C)CCN(C2CCOCC2)C3)n1 [Compound 27]
120 (≈ 216 µM)	99 (≈ 178 µM)	98 (≈ 176 µM)	<24	COCC(C)N1CCc2cc(COc3c(C)cccc3-c3cccc(-n4ncc(C(=O)O)c4OC)n3)cc(C)c2C1 (stereo not drawn) [Compound 244]
100 (≈ 176 µM)	81 (≈ 142 µM)	84 (≈ 148 µM)	<24	CCOc1c(C(=O)O)cnn1-c1cccc(-c2cccc(C)c2OCc2cc(C)c3c(c2)CCN(C2CCOC2)C3)n1 (stereo not drawn) [Compound 241]
81 (≈ 135 µM)	70 (≈ 117 µM)	72 (≈ 120 µM)	<24	COc1c(C(=O)O)cnn1-c1cccc(-c2cccc(C)c2OCc2ccc3c(c2C)CCN(C[C@H]2COCCO2)CC3)n1 [Compound 203]
89 (≈ 152 µM)	77 (≈ 132 µM)	85 (≈ 145 µM)	<24	CCOc1c(C(=O)O)cnn1-c1cccc(-c2cccc(C)c2OCc2ccc3c(c2C)CCN(C(C)COC)CC3)n1 (stereo not drawn) [Compound 196]
110 (≈ 184 µM)	76 (≈ 127 µM)	74 (≈ 124 µM)	89	COc1c(C(=O)O)cnn1-c1cccc(-c2cccc(C)c2OCc2ccc3c(c2)C(C)(C)CN(CC2COCCO2)C3)n1 (stereo not drawn) [Compound 219]
97 (≈ 171 µM)	73 (≈ 128 µM)	69 (≈ 121 µM)	89	COc1c(C(=O)O)cnn1-c1cccc(-c2cccc(C)c2OCc2ccc3c(c2)C(C)(C)CN(C2CCOC2)C3)n1 (stereo not drawn) [Compound 217]
110 (≈ 193 µM)	87 (≈ 153 µM)	88 (≈ 155 µM)	<24	COc1c(C(=O)O)cnn1-c1cccc(-c2cc(C)cc(C)c2OCc2ccc3c(c2)CCN(C2CCOCC2)C3)n1 [Compound 181]
82 (≈ 144 µM)	68 (≈ 120 µM)	73 (≈ 128 µM)	<24	COc1c(C(=O)O)cnn1-c1cccc(-c2cccc(C)c2OCc2ccc3c(c2C)CCN([C@@H]2CCOC2)CC3)n1 [Compound 207]
0.68 (≈ 1.14 µM)	2.5 (≈ 4.19 µM)	78 (≈ 131 µM)	<24	CCOc1c(C(=O)O)cnn1-c1cccc(-c2cccc(C)c2OCc2ccc3c(c2C)CCN(C2CCOCC2)C3=O)n1 [Compound 194]
100 (≈ 179 µM)	72 (≈ 129 µM)	77 (≈ 138 µM)	<24	COc1c(C(=O)O)cnn1-c1cccc(-c2cccc(C)c2OCc2ccc3c(c2F)CCN([C@H]2CCOC2)C3)n1 [Compound 251]
